# Assay results published in patent publication US20220145303A1, “FRAGILE X MENTAL RETARDATION PROTEIN INTERFERING OLIGONUCLEOTIDES AND METHODS OF USING SAME” (Nogra Pharma Limited, priority 2019, published 2022).
# Key:
# HCEC-1ct cells = test: Cell death by AnnexinV/PI flow cytometry in HCEC-1ct cells; assay type: cell-based, human; conditions: 24 hours, AS 0.5 nM and 100 nM, FIGS. 3J, 3K
# Protocol: (§1) Cells were transfected with either FMRP antisense oligonucleotide (AS)(final concentration 0.5 nM and 100 nM) or FMRP sense oligonucleotide (S)(final concentration 100 nM). After 24 hours (FIGS. 3E, 3F, 3J and 3K) or 48 hours (FIG. 3H), cells were collected, washed two times in Annexin V (AV) buffer, stained with FITC-AnnexinV (final dilution 1:100; Immunotools, Friesoythe, Germany) according to the manufacturer's instructions, and incubated with […] of propidium iodide (PI) for 30 min at 4° C. Cells were also transfected with either FMRP sense oligonucleotide or FMRP AS oligonucleotide (final concentration 100 nM) for 36 hours and analyzed for activated caspase 3 and caspase 8. As positive and negative controls, cells were treated, respectively, with staurosporin (final concentration 1 μM, Sigma-Aldrich Milan, Italy) or Q-VD-OPh (a pan-caspase inhibitor; final concentration 1 μM) (R&D Systems, Inc, Minneapolis, Minn.). Additionally, 36 hours (FIGS. 4F and 4G) or 48 hours post-transfection (FIGS. 4D and 4E), cells were pulsed with […] bromodeoxyuridine for 60 minutes, fixed in 70% cold ethanol, and stored at −20° C. for at least 3 hours. […] Fluorescence was measured using Gallios Flow Cytometer (Beckman Coulter, Life Sciences, Pasadena, Calif., USA) and analyzed using Kaluza software (Beckman Coulter). […]
# MLKL = test: Western blot of phospho-MLKL after FMRP antisense treatment; assay type: cell-based; conditions: human CRC cell lines, 24 hours, FIGS. 6A, 6D
# Protocol: (§2) To confirm the association of FMRP with components of the necroptosis pathway, cells were left untreated or transfected with either FMRP antisense oligonucleotide (final concentration 0.5 nM and 100 nM) or FMRP sense oligonucleotide (final concentration 100 nM); incubated with a pMLKL inhibitor (necrosulfonamide, NSA; final concentration 1 μM)(Calbiochem); or a pRIPK1 inhibitor (necrostatinl, NEC1; final concentration 10 μM)(Cayman Chemical, Ann Arbor, Mich. USA). After 24 hours cells were collected and analyzed by Western blot, or stained with FITC-Annexin V and PI for flow cytometry analysis, as previously described in Examples 1-3.
# RIPK3 = test: Western blot of phospho-RIPK3 after FMRP antisense treatment; assay type: cell-based; conditions: human CRC cell lines, 24 hours, FIGS. 6A, 6C
# Protocol: as §2
# RIPK1 = test: Western blot of RIPK1 and phospho-RIPK1 after FMRP antisense treatment; assay type: cell-based; conditions: human CRC cell lines, 24 hours
# Protocol: as §2
# HCT-116 cells [1] = test: Invasion across Matrigel-coated Transwell inserts; assay type: cell-based, human; conditions: HCT-116, AS 0.5 nM, 48 hours, vs untreated or sense, FIGS. 8C, 8D
# Protocol: (§3) To investigate the role of FMRP in tumor cell migration and invasion, HCT-116 cells were seeded in each side of an Ibidi® culture insert and grown to confluence then left untreated (U) or transfected with sense FMRP oligonucleotide (S) (final concentration 0.5 nM) or antisense FMRP oligonucleotide (AS) (final concentration 0.5 nM). Additionally, HCT-116 cells were seeded in Transwell® inserts precoated with Matrigel®, and either left untreated (U) or transfected with sense oligonucleotide (S) (final concentration 100 nM) or antisense FMRP oligonucleotide (AS) (final concentration 0.5 nM) for 48 hours.
# HCT-116 cells [2] = test: Cell migration (pseudo-wound closure) with Ibidi culture insert; assay type: cell-based, human; conditions: HCT-116, AS 0.5 nM, T24 and T48, vs untreated or sense, FIGS. 8A, 8B
# Protocol: as §3
# To determine whether MCC regulation of the E-cadherin/β-catenin complex is also required for the observed inhibition of colorectal cell line migration and invasion (e.g., FIGS. 8A and 8B), HCT-116 cells were seeded in each side of an Ibidi® culture insert and grown to confluence then left untreated (U) or transfected with sense oligonucleotide (S) (final concentration 0.5 nM) or antisense oligonucleotide (AS) (final concentration 0.5 nM) and/or siRNA Ctrl or siRNA MCC.
# DLD-1 cells = test: Cell death by AnnexinV/PI flow cytometry in DLD-1 cells; assay type: cell-based, human; conditions: 24 hours, AS 0.5 nM and 100 nM, FIGS. 3E, 3F
# Protocol: as §1
# MCC = test: Western blot of MCC in HCT-116 cells; assay type: cell-based, human; conditions: HCT-116, AS 0.5 nM, 48 hours, vs untreated or sense, FIGS. 9A, 9B
# Protocol: To investigate whether FMRP regulates MCC, a protein known to interact with the E-cadherin/β-catenin complex, HCT-116 cells were left untreated (U) or transfected with sense FMRP oligonucleotide (S) (final concentration 0.5 nM) or antisense FMRP oligonucleotide (AS) (final concentration 0.5 nM) for 48 hours.
# E-cadherin = test: Western blot of E-cadherin in HCT-116 cells; assay type: cell-based, human; conditions: HCT-116, AS 0.5 nM, 48 hours, vs untreated or sense, FIGS. 8E, 8F
# Protocol: To determine whether FMRP regulates levels of E-cadherin and/or β-catenin, key proteins associated with cellular adhesion, cytoskeletal remodeling, and inhibition of tumor migration and invasion, cells were left untreated (U), or transfected with either FMRP sense (S) oligonucleotide (final concentration 0.5 nM) or FMRP antisense (AS) oligonucleotide (final concentration 0.5 nM) for 48 hours.
# Recent studies have described a novel tumor suppressor function of MCC in the regulation of E-cadherin/β-catenin complex-mediated cell-cell adhesion in colorectal cells. To investigate whether MCC mediates the observed increase of E-cadherin and β-catenin expression in HCT-116 cells transfected with antisense FMRP oligonucleotide (e.g., FIGS. 8E-8G), cells were left untreated (U) or transfected with sense FMRP oligonucleotide (final concentration 0.5 nM), or antisense FMRP oligonucleotide (final concentration 0.5 nM), and/or control siRNA (siRNA Ctrl) or siRNA specific for MCC (siRNA MCC) for 48 hours.
substance,measurement,setting,value
"5′-TCCACCACCAGCTCCTCCAT-3′ (all phosphorothioate, sugars by position and methylation of C not given here) [FMRP antisense oligonucleotide, Phosphorothioate single-stranded antisense oligonucleotides complementary to human FMRP]",number of AnnexinV+ or AnnexinV+ PI+ cells,HCEC-1ct cells,neither HCT-116 cells nor HCRC-1ct cells treated with FMRP antisense oligonucleotide exhibited an increased number
same,phosphorylation of MLKL,MLKL,increased phosphorylation
same,phosphorylation of RIPK3,RIPK3,increased phosphorylation
same,total protein expression levels of RIPK1,"RIPK1; AS 0.5 nM and 100 nM, FIG. 6A",increased the total protein expression levels of RIPK1
same,phosphorylation of RIPK1,"RIPK1; FIGS. 6A, 6B",increased phosphorylation
same,number of cells migrating across Matrigel-coated Transwell insert,HCT-116 cells [1],significantly reduced migration
same,percentage of cell-covered area (pseudo-wound),HCT-116 cells [2],significantly reduced the percentage of cells covering a pseudo-“wound”
same,number of AnnexinV+ or AnnexinV+ PI+ cells,DLD-1 cells,increased number of AnnexinV^+ or AnnexinV^+ Pt cells
same,MCC protein expression,MCC,significantly increased expression of MCC
same,E-cadherin protein expression,E-cadherin,significantly increased
